Experimental data taken from patent US10214514B2, “Hedgehog antagonists having zinc binding moieties” (Curis, Inc., priority 2011, dated 2019).
“And” between values parts separate entries of the source, which are not always exact repeats. Equal entries are not always repeated.

How the values were obtained:
[1] = system: HDACs (HeLa cell nuclear extracts); test: HDAC enzymatic activity inhibition assay (Biomol Color de Lys system); format: biochemical; conditions: class symbols
Description: HDAC inhibitory activity was assessed using the Biomol Color de Lys system (AK-500, Biomol, Plymouth Meeting, Pa.). Briefly, HeLa cell nuclear extracts were used as a source of HDACs. Different concentrations of test compounds were serially diluted in dimethylsulfoxide (DMSO) and added to HeLa cell nuclear extracts in the presence of a colorimetric artificial substrate. […] Reactions were carried out at room temperature (25° C.) for 1 hour before addition of developer for termination. […] Data were analyzed using GraphPad Prism (v4.0a) with a sigmoidal dose response curve fitting for IC50 calculation.

[2] = system: Hedgehog pathway signaling (Gli-Luc response, OCT-SHH activated 10 Tl/2 (s12) cells); test: Hedgehog signalling inhibition, Gli-Luc reporter assay (Hh Reporter assay); format: cell-based
Description: Example 17: An In Vitro Assay which Determines the Ability of a Test Compound to Inhibit Hedgehog Signalling
Compounds to be tested were dissolved in DMSO to a concentration of 10 mM, and stored at −20° C. To activate the Hedgehog pathway in the assay cells, an octylated (lipid-modified) form of the N-terminal fragment of the Sonic Hedgehog protein (OCT-SHH) was used. This N-terminal SHH fragment is produced bacterially. See, for example, Taylor F R, et al., Biochemistry, 2001, 40: 4359-71.
Compounds were tested in the“Gli-Luc” assay below, using the cell line 10 Tl/2 (s12), wherein the cells contain a Hedgehog-responsive reporter construct utilizing Luciferase as the reporter gene. In this way, Hedgehog pathway signaling activity is measured via the Gli-Luc response.
10 Tl/2 (s12) cells were plated in a 96-well micro-titer plate (MTP) at 20,000 cells/well in full medium [DMEM with 10% FBS]. Then plates were placed in the incubator for incubation overnight (0/N), at 37° C. and 5% CO2. After 24 h, the medium was replaced with Luciferase-assay medium (DMEM with 0.5% FBS). Test compounds were thawed and diluted in assay medium at 3:1000 (about 300-fold) resulting in a starting concentration of about 0.0003 uM to 30 uM. Subsequently, 150 ul of each sample was added to the first wells (in triplicate). The MTP samples were then diluted at 3-fold dilutions to a total of seven wells, ultimately resulting in a regiment of seven dilutions in triplicate, for each compound. Next, the protein ligand OCT-SHH was diluted in Luciferase-assay medium and added to each well at a final concentration of 0.3 μg/ml. Plates were then returned to the incubator for further incubation O/N, at 37° C. and 5% CO2. After about 24 h, plates were removed from the incubator and the medium was aspirated/discarded.
Wells were washed once with assay buffer [PBS+1 mM Mg^2+ and 1 mM Ca^2+]. Then 50 μl of assay buffer was added to each well. The Luciferase assay reagent was prepared as described by the vendor (LucLite kit from Packard), and 50 μl was added to each well. Plates were incubated at room temperature (RT) for about 30 minutes after which the signals were read, again at RT, on a Topcount (Packard). […]

[3] = S12, Gli-Luc reporter, class symbols

Compound | IC50 [1] [nM] | IC50 [2, 3] [nM] | IC50 ([2]; Gli-Luc reporter, numeric values for reference compounds) | IC50 ([2]; S12, Gli-Luc reporter, numeric values for reference compounds) [nM] | melting point [°C]
CS(=O)(=O)c1ccc(C(=O)Nc2ccc(Cl)c(-c3ccc(C(=O)NO)cn3)c2)c(Cl)c1 [Compound 5, 6-(2-Chloro-5-(2-chloro-4-(methylsulfonyl)benzamido)phenyl)-N-hydroxynicotinamide] | 100 to 1000 | 100 to 1000 | – | – | –
CS(=O)(=O)c1ccc(C(=O)Nc2ccc(Cl)c(-c3ncc(C(=O)NO)cn3)c2)c(Cl)c1 [Compound 7, 2-[2-Chloro-5-(2-chloro-4-methanesulfonyl-benzoylamino)-phenyl]-pyrimidine-5-carboxylic acid hydroxyamide] | 100 to 1000 | > 1000 | – | – | –
COc1cc(OC)cc(C(=O)Nc2ccc(Cl)c(-c3nc4ccc(N(C)C)cc4[nH]3)c2)c1 [Compound A, reference compound] | – | – | 24 nM and 13.1 nM | 17 | –
O=C(CCCCCCNS(=O)(=O)c1ccc(C(=O)Nc2ccc(Cl)c(-c3ccccn3)c2)c(Cl)c1)NO [Compound 59, 2-Chloro-N-(4-chloro-3-(pyridin-2-yl)phenyl)-4-(N-(7-(hydroxyamino)-7-oxoheptyl)sulfamoyl)benzamide] | 100 to 1000 | 10 to 100 | – | – | –
O=C(/C=C/c1cccc(NS(=O)(=O)c2ccc(C(=O)Nc3ccc(Cl)c(-c4ccccn4)c3)c(Cl)c2)c1)NO [Compound 254, (E)-2-Chloro-N-(4-chloro-3-(pyridin-2-yl)phenyl)-4-(N-(3-(3-(hydroxyamino)-3-oxoprop-1-enyl)phenyl)sulfamoyl)benzamide] | 100 to 1000 | 10 to 100 | – | – | –
O=C(NO)c1cnc(NS(=O)(=O)c2ccc(C(=O)Nc3ccc(Cl)c(-c4ccccn4)c3)c(Cl)c2)nc1 [Compound 265, 2-(3-Chloro-4-(4-chloro-3-(pyridin-2-yl)phenylcarbamoyl)phenylsulfonamido)-N-hydroxypyrimidine-5-carboxamide] | > 1000 | – | – | – | –
O=C(NO)c1ccc(OCCNS(=O)(=O)c2ccc(C(=O)Nc3ccc(Cl)c(-c4ccccn4)c3)c(Cl)c2)cc1 [Compound 266, 2-Chloro-N-(4-chloro-3-(pyridin-2-yl)phenyl)-4-(N-(2-(4-(hydroxycarbamoyl)phenoxy)ethyl)sulfamoyl)benzamide] | 100 to 1000 | 1 to 10 | – | – | 138 to 139
O=C(NO)c1cnc(N2CCC(CNS(=O)(=O)c3ccc(C(=O)Nc4ccc(Cl)c(-c5ccccn5)c4)c(Cl)c3)CC2)nc1 [Compound 90, 2-(4-((3-Chloro-4-(4-chloro-3-(pyridin-2-yl)phenylcarbamoyl)phenylsulfonamido)methyl)piperidin-1-yl)-N-hydroxypyrimidine-5-carboxamide] | 10 to 100 | 1 to 10 | – | – | 172 to 173
Cc1nc(NCC2CCN(c3ncc(C(=O)NO)cn3)CC2)ccc1C(=O)Nc1ccc(Cl)c(-c2nc3ccccc3[nH]2)c1 [Compound 91, 2-(4-((5-(3-(1H-Benzo[d]imidazol-2-yl)-4-chlorophenylcarbamoyl)-6-methylpyridin-2-ylamino)methyl)piperidin-1-yl)-N-hydroxypyrimidine-5-carboxamide] | 10 to 100 | 10 to 100 | – | – | 194 to 196
CS(=O)(=O)c1ccc(C(=O)Nc2ccc(Cl)c(-c3ccc(/C=C/C(=O)NO)cn3)c2)c(Cl)c1 [Compound 1, (E)-2-chloro-N-(4-chloro-3-(5-(3-(hydroxyamino)-3-oxoprop-1-enyl)pyridin-2-yl)phenyl)-4-(methylsulfonyl)benzamide] | 100 to 1000 | 100 to 1000 | – | – | –

The next lines start with the values.

IC50 [1] [nM] | IC50 [2, 3] [nM] | IC50 ([2]; Gli-Luc reporter, numeric values for reference compounds) | IC50 ([2]; S12, Gli-Luc reporter, numeric values for reference compounds) [nM] | melting point [°C] | Compound
10 to 100 | 10 to 100 | – | – | – | COc1cc(CN(C)c2ncc(C(=O)NO)cn2)cc(C(=O)Nc2ccc(Cl)c(-c3nc4cc(N(C)C)ccc4[nH]3)c2)c1 [Compound 259, 2-((3-(4-Chloro-3-(5-(dimethylamino)-1H-benzo[d]imidazol-2-yl)phenylcarbamoyl)-5-methoxybenzyl)(methyl)amino)-N-hydroxypyrimidine-5-carboxamide]
10 to 100 | 100 to 1000 | – | – | – | CN(C)c1ccc2[nH]c(-c3cc(NC(=O)c4cccc(OCCCCCCC(=O)NO)c4)ccc3Cl)nc2c1 [Compound 111, N-(4-Chloro-3-(5-(dimethylamino)-1H-benzo[d]imidazol-2-yl)phenyl)-3-(7-(hydroxyamino)-7-oxoheptyloxy)benzamide]
10 to 100 | 100 to 1000 | – | – | – | CN(Cc1ccc(C(=O)Nc2ccc(Cl)c(-c3ccccn3)c2)c(Cl)c1)c1ncc(C(=O)NO)cn1 [Compound 263, 2-((3-Chloro-4-(4-chloro-3-(pyridin-2-yl)phenylcarbamoyl)benzyl) (methyl)amino)-N-hydroxypyrimidine-5-carboxamide]
10 to 100 | 10 to 100 | – | – | 158 to 159 | COc1cc(CNc2ncc(C(=O)NO)cn2)cc(C(=O)Nc2ccc(Cl)c(-c3nc4cc(N(C)C)ccc4[nH]3)c2)c1 [Compound 258, 2-(3-(4-Chloro-3-(5-(dimethylamino)-1H-benzo[d]imidazol-2-yl)phenylcarbamoyl)-5-methoxybenzylamino)-N-hydroxypyrimidine-5-carboxamide]
10 to 100 | 100 to 1000 | – | – | 140 to 145 | CS(=O)(=O)c1ccc(C(=O)Nc2ccc(Cl)c(-c3ccc(OCCCCCCC(=O)NO)cn3)c2)c(Cl)c1 [Compound 23, 2-Chloro-N-{4-chloro-3-[5-(6-hydroxycarbamoyl-hexyloxy)-pyridin-2-yl]-phenyl}-4-methanesulfonyl-benzamide]
